Read-outs that look alike come from different tables or passages of the source.

This data set can be described thus: Mitochondrial toxicity (Glu/Gal) assay. The class given is cell-based. The note with it: for Score: mitotoxicity score, Glu/Gal assay; for Δ IC50, glu/IC50, gal: ratio IC50 glu / IC50 gal. From the text: The compounds of the invention/examples may have advantages associated with in vitro potency, kill kinetics (i.e. bactericidal effect) in vitro, PK properties, food effect, safety/toxicity (including liver toxicity, coagulation, 5-LO oxygenase), metabolic stability, Ames II negativity, MNT negativity, aqueous based solubility (and ability to formulate) and/or cardiovascular effect e.g. on animals (e.g. anesthetized guinea pig). Data that is generated/calculated may be obtained using standard methods/assays, for instance that are available in the literature or which may be performed by a supplier (e.g. Microsomal Stability Assay—Cyprotex, Mitochondrial toxicity (Glu/Gal) assay—Cyprotex, as well as literature CYP cocktail inhibition assays). GSH can be measured (reactive metabolites, glucuronidation) to observe if a dihydrodiol is observed by LCMS (fragmentation ions), which would correspond to a dihydroxylation on the core heterocycle.

Where [1] appears, read: galactose medium (Glu/Gal mitotoxicity assay), read-out: IC50, gal.
The mark [2] stands for this setting: glucose medium (Glu/Gal mitotoxicity assay), read-out: IC50, glu.

Consider `CCc1nc2ccc(Cl)cn2c1C(=O)NCc1ccc(-c2nc3n(n2)CCN(S(=O)(=O)C(F)(F)F)C3)c(F)c1` [Compound 3], for which the Score result is “[x]1” and the “Δ IC50, glu/IC50, gal” value amounted to 0.91. The IC50 (read-out: IC50, gal) was found to be 73.1 µM. Under “read-out: IC50, glu”, the concentration for half-maximal inhibition (IC50) came out at 66.2 µM.
As to `O=C(NCc1ccc(-c2nc3n(n2)CCN(S(=O)(=O)C(F)(F)F)C3)c(F)c1)c1c(C(F)F)nc2ccc(Cl)cn12` [Compound 5], the Score result is “[x]1” and the “Δ IC50, glu/IC50, gal” value was 0.96. Also, the IC50 (read-out: IC50, gal) is 117 µM. For the same compound, under “read-out: IC50, glu”, the IC50 came to 112 µM.
In the case of `CCc1nc2cc(C)c(Cl)cn2c1C(=O)NCc1ccc(-c2nc3n(n2)CCN(S(=O)(=O)C(F)(F)F)C3)c(F)c1` [Compound 9], the Score result was “[x]1” and the “Δ IC50, glu/IC50, gal” value was 1.15. The half-inhibitory concentration (IC50) (read-out: IC50, gal) was determined as 19.9 µM. Besides, the IC50 (read-out: IC50, glu) is 22.9 µM.
As for `CCc1nc2c(Cl)c(OC)ccn2c1C(=O)NCc1ccc(-c2nc3n(n2)CCN(S(=O)(=O)C(F)(F)F)C3)c(F)c1` [Compound 11], the “Δ IC50, glu/IC50, gal” value is on record as over 2.93. For the setting “read-out: IC50, gal”, the IC50 was determined as 68.2 µM. In addition, under “read-out: IC50, glu”, the IC50 is over 200 µM.
Take `CCc1nc2cc(OC)c(Cl)cn2c1C(=O)NCc1cnc(-c2nc3n(n2)CCN(S(=O)(=O)C(F)(F)F)C3)c(F)c1` [Compound 16]: the half-maximal inhibitory concentration (IC50) is over 200 µM under setting [1] and over 200 µM under setting [2].
In the case of `CCc1nc2ncc(F)cn2c1C(=O)NCc1ccc(-c2nc3n(n2)CCN(S(=O)(=O)C(F)(F)F)C3)c(F)c1` [Compound 17], the IC50 by setting is: under setting [1], over 200 µM; under setting [2], over 200 µM.
For `CCc1nc2cc(C)c(Cl)cn2c1C(=O)NCc1cnc(-c2nc3n(n2)CCN(S(=O)(=O)C(F)(F)F)C3)c(F)c1` [Compound 20], the Score result was “[x]1” and the “Δ IC50, glu/IC50, gal” value is recorded as over 1.3. The half-maximal inhibitory concentration (IC50) (read-out: IC50, gal) worked out at 154 µM. In addition, for the setting “read-out: IC50, glu”, the IC50 was over 200 µM.
With `CCc1nc2c(F)cc(Cl)cn2c1C(=O)NCc1ccc(-c2nc3n(n2)CCN(S(=O)(=O)C(F)(F)F)C3)cc1` [Compound 21], the Score result was “[x]1” and the “Δ IC50, glu/IC50, gal” value came out at 1.65. Besides, under “read-out: IC50, gal”, the half-inhibitory concentration (IC50) was 59.4 µM. Moreover, the IC50 (read-out: IC50, glu) is 97.9 µM.
In the case of `CCc1nc2ccc(F)cn2c1C(=O)NCc1ccc(-c2nc3n(n2)CCN(S(=O)(=O)C(F)(F)F)C3)cc1` [Compound 22], the Score entry is “[x]1” and the “Δ IC50, glu/IC50, gal” value is on record as 1.51. Also, the IC50 (read-out: IC50, gal) was determined as 62.6 µM. Moreover, for the setting “read-out: IC50, glu”, the IC50 was 94.7 µM.
For the compound `CCc1nc2cc(C)c(C)cn2c1C(=O)NCc1ccc(-c2nc3n(n2)CCN(S(=O)(=O)C(F)(F)F)C3)cc1` [Compound 23], the half-maximal inhibitory concentration (IC50) was over 200 µM under setting [1] and over 200 µM under setting [2].
For the compound `CCc1nc2cc(Cl)c(C)cn2c1C(=O)NCc1ccc(-c2nc3n(n2)CCN(S(=O)(=O)C(F)(F)F)C3)cc1` [Compound 25], the “Δ IC50, glu/IC50, gal” value is over 2.26. Moreover, the IC50 (read-out: IC50, gal) came out at 22.1 µM. The IC50 (read-out: IC50, glu) was over 50 µM.
As to `CCc1nc2ncc(C(C)C)cn2c1C(=O)NCc1ccc(-c2nc3n(n2)CCN(S(=O)(=O)C(F)(F)F)C3)cc1` [Compound 26], the 50% inhibitory concentration (IC50) was over 200 µM under setting [1] and over 200 µM under setting [2].
Turning to `CCc1nc2ccc(C3CC3)cn2c1C(=O)NCc1ccc(-c2nc3n(n2)CCN(S(=O)(=O)C(F)(F)F)C3)cc1` [Compound 27], the “Δ IC50, glu/IC50, gal” value was 2.34. For the setting “read-out: IC50, gal”, the concentration for half-maximal inhibition (IC50) stood at 44.5 µM. In addition, the 50% inhibitory concentration (IC50) (read-out: IC50, glu) came out at 104 µM.
Regarding `CCc1nc2ncc(C3CC3)cn2c1C(=O)NCc1ccc(-c2nc3n(n2)CCN(S(=O)(=O)C(F)(F)F)C3)cc1` [Compound 28], the half-inhibitory concentration (IC50) was over 200 µM (read-out: IC50, gal) and over 200 µM (read-out: IC50, glu).
Take `Cc1cnc2nc(C)c(C(=O)NCc3ccc(-c4nc5n(n4)CCN(S(=O)(=O)C(F)(F)F)C5)cc3)n2c1` [Compound 29]: the IC50 under setting [1] was over 200 µM and the IC50 under setting [2] was over 200 µM.
Regarding `Cc1ccc2nc(C3CC3)c(C(=O)NCc3ccc(-c4nc5n(n4)CCN(S(=O)(=O)C(F)(F)F)C5)cc3)n2c1` [Compound 30], the Score entry is “[x]1” and the “Δ IC50, glu/IC50, gal” value worked out at 1.35. The 50% inhibitory concentration (IC50) (read-out: IC50, gal) is 71.1 µM. Besides, where the note is “read-out: IC50, glu”, the IC50 was found to be 95.7 µM.
Turning to `CCc1nc2n(c1C(=O)NCc1ccc(-c3nc4n(n3)CCN(S(=O)(=O)C(F)(F)F)C4)cc1)CCCC2` [Compound 31], the half-maximal inhibitory concentration (IC50) is over 200 µM under setting [1] and over 200 µM under setting [2].
With `Cc1cn2c(C(=O)NCc3ccc(-c4nc5n(n4)CCN(S(=O)(=O)C(F)(F)F)C5)cc3)c(C)nc2s1` [Compound 32], the Score result was “[x]3” and the “Δ IC50, glu/IC50, gal” value is over 12.72. Besides, for the setting “read-out: IC50, gal”, the IC50 was determined as 15.7 µM. The IC50 (read-out: IC50, glu) was over 200 µM.
`CCc1nc2nc(C)c(C)cn2c1C(=O)NCc1ccc(-c2nc3n(n2)CCN(S(=O)(=O)C(F)(F)F)C3)cc1` [Compound 33]: the Score entry was “[x]1” and the “Δ IC50, glu/IC50, gal” value is given as under 0.98. Besides, the half-inhibitory concentration (IC50) (read-out: IC50, gal) was over 200 µM. For the setting “read-out: IC50, glu”, the IC50 amounted to 196 µM.
On to `Cc1ccc2nc(C)c(C(=O)NCc3ccc(-c4nc5n(n4)CCN(S(=O)(=O)C(F)(F)F)C5)cc3)n2c1` [Compound 34], for which the Score result is “[x]0” and the “Δ IC50, glu/IC50, gal” value is over 1.13. Moreover, the IC50 (read-out: IC50, gal) was determined as 44.2 µM. The IC50 (read-out: IC50, glu) is over 50 µM.
`CCc1nc2ccc(C(C)C)cn2c1C(=O)NCc1ccc(-c2nc3n(n2)CCN(S(=O)(=O)C(F)(F)F)C3)cc1` [Compound 35]: the Score entry was “[x]0” and the “Δ IC50, glu/IC50, gal” value is over 1.25. Further, the 50% inhibitory concentration (IC50) (read-out: IC50, gal) was 40.1 µM. In addition, where the note is “read-out: IC50, glu”, the half-inhibitory concentration (IC50) is over 50 µM.
Take `CCc1nc2sc(C)cn2c1C(=O)NCc1ccc(-c2nc3n(n2)CCN(S(=O)(=O)C(F)(F)F)C3)cc1` [Compound 36]: the Score result is “[x]0” and the “Δ IC50, glu/IC50, gal” value is over 1.26. The half-maximal inhibitory concentration (IC50) (read-out: IC50, gal) was 79.5 µM. Moreover, under “read-out: IC50, glu”, the IC50 is over 100 µM.
Turning to `CCc1nc2ncc(C)cn2c1C(=O)NCc1ccc(-c2nc3n(n2)CCNC3)cc1` [Compound 37], the concentration for half-maximal inhibition (IC50) by setting is: under setting [1], over 200 µM; under setting [2], over 200 µM.
As to `Cc1nc2sc(Cl)cn2c1C(=O)NCc1ccc(-c2nc3n(n2)CCN(S(=O)(=O)C(F)(F)F)C3)cc1` [Compound 38], the Score result is “[x]3” and the “Δ IC50, glu/IC50, gal” value is listed as over 11.52. Further, the IC50 (read-out: IC50, gal) was 8.68 µM. Besides, the IC50 (read-out: IC50, glu) is over 100 µM.
Turning to `CCc1nc2ncc(C)cn2c1C(=O)NCc1ccc(-c2nc3n(n2)CCN(C(C)=O)C3)cc1` [Compound 40], the IC50 under setting [1] is over 200 µM and the IC50 under setting [2] was over 200 µM.
As for `CCc1nc2ncc(C)cn2c1C(=O)NCc1ccc(-c2nc3n(n2)CCN(S(=O)(=O)N(C)C)C3)cc1` [Compound 41], the IC50 is, setting by setting: under setting [1], over 200 µM; under setting [2], over 200 µM.
For the compound `CCc1nc2ncc(C)cn2c1C(=O)NCc1ccc(-c2nc3n(n2)CCN(C(=O)C(F)(F)F)C3)cc1` [Compound 43], the IC50 reads like this: under setting [1], over 200 µM; under setting [2], over 200 µM.
As to `CCc1nc2nc3c(cn2c1C(=O)NCc1ccc(-c2nc4n(n2)CCN(S(=O)(=O)C(F)(F)F)C4)cc1)CCC3` [Compound 45], the concentration for half-maximal inhibition (IC50) by setting is: under setting [1], over 100 µM; under setting [2], over 100 µM.
For the compound `CCc1nc2ccc(C)cn2c1C(=O)NCc1ccc(-c2nc3n(n2)CCN(C(C)=O)C3)cc1` [Compound 46], the half-inhibitory concentration (IC50) under setting [1] was over 200 µM and the half-maximal inhibitory concentration (IC50) under setting [2] was over 200 µM.
`CCc1nc2ccc(C)cn2c1C(=O)NCc1ccc(-c2nc3n(n2)CCN(S(=O)(=O)N2CCCC2)C3)cc1` [Compound 48]: the IC50 is, setting by setting: under setting [1], over 200 µM; under setting [2], over 200 µM.
For `CCc1nc2ncc(C)cn2c1C(=O)NCc1ccc(-c2nc3n(n2)CCN(C)C3)cc1` [Compound 50], the half-maximal inhibitory concentration (IC50) runs as follows: under setting [1], over 200 µM; under setting [2], over 200 µM.
For the compound `CCc1nc2ccc(C)cn2c1C(=O)NCc1ccc(-c2nc3n(n2)CCN(S(=O)(=O)N(C)C)C3)cc1` [Compound 51], the 50% inhibitory concentration (IC50) under setting [1] was over 200 µM and the IC50 under setting [2] is over 200 µM.
In the case of `CCc1nc2ccc(C)cn2c1C(=O)NCc1ccc(-c2nc3n(n2)CCNC3)cc1` [Compound 52], the IC50 is over 200 µM under setting [1] and over 200 µM under setting [2].
Consider `CCc1nc2ccc(C)cn2c1C(=O)NCc1ccc(-c2nc3n(n2)CCN(C(=O)C(F)(F)F)C3)cc1` [Compound 53], for which the half-maximal inhibitory concentration (IC50) under setting [1] is over 200 µM and the IC50 under setting [2] is over 200 µM.
Regarding `CCc1nc2ncc(C)cn2c1C(=O)NCc1ccc(-c2nc3n(n2)CCN(CCOC)C3)cc1` [Compound 54], the half-maximal inhibitory concentration (IC50) is, setting by setting: under setting [1], over 200 µM; under setting [2], over 200 µM.
For `CCc1nc2ccc(C)cn2c1C(=O)NCc1ccc(-c2nc3n(n2)CCN(CCOC)C3)cc1` [Compound 55], the Score entry is “[x]1” and the “Δ IC50, glu/IC50, gal” value is recorded as over 1.15. In addition, for the setting “read-out: IC50, gal”, the IC50 worked out at 174 µM. In addition, the concentration for half-maximal inhibition (IC50) (read-out: IC50, glu) was over 200 µM.
`CCc1nc2ccc(C)cn2c1C(=O)NCc1ccc(-c2nc3n(n2)CCN(C)C3)cc1` [Compound 56]: the 50% inhibitory concentration (IC50) was over 200 µM under setting [1] and over 200 µM under setting [2].
Consider `CCc1nc2ncc(C)cn2c1C(=O)NCc1ccc(-c2nc3n(n2)CCN(S(=O)(=O)C(F)(F)F)C3)s1` [Compound 57], for which the half-maximal inhibitory concentration (IC50) under setting [1] is over 200 µM and the IC50 under setting [2] was over 200 µM.
Take `CCc1nc2ncc(C)cn2c1C(=O)NCc1ccc(C2CN(c3nc4n(n3)CCN(S(=O)(=O)C(F)(F)F)C4)C2)cc1` [Compound 58]: the “Δ IC50, glu/IC50, gal” value is given as over 3.44. In addition, the concentration for half-maximal inhibition (IC50) (read-out: IC50, gal) was found to be 58.2 µM. Also, the half-maximal inhibitory concentration (IC50) (read-out: IC50, glu) is over 200 µM.
